# Counter-ions that a name gives are not always drawn. Like-named read-outs stand apart in the source and are kept apart here.
# Experiments:
# [1] = tested on: β-adrenoreceptor; experiment: β-adrenergic blocking activity in anesthetized dogs: antagonism (Inhibition %) of isoprenaline-induced responses; format: in vivo, dog; conditions: 300 μg/kg i.v., 10 minutes after; for Inhibition (%) dBP (antagonism to the depression of diastolic blood pressure induced by isoprenaline) / Inhibition (%) HR (antagonism to the increase in heart rate induced by isoprenaline): isoprenaline 1 μg/kg i.v.; for Inhibition (%) AR (antagonism to the depression by isoprenaline in increase of air-way resistance induced by histamine): isoprenaline 1 μg/kg, histamine 5 μg/kg i.v.
# Description: The β-adrenergic blocking activity of the compounds of this invention was determined as follows:
# Male hybrid adult dogs, weighing 10 to 16 kg, were anesthesized with sodium pentobarbital administered intravenously at a level of 30 mg/kg of body weight, and a cannula was inserted into the trachea of each of the anesthesized dogs. In order to avoid blood coagulation, heparin was administered intravenously at a level of 1000 units and thereafter a cannula was inserted into the right femoral artery. The experiments were conducted under artificial respiration at a rate of 20 ml/kg, 18 r.p.m.
# The above parameters were continuously recorded on a polygraph (8S 28 Type, tradename of Sanei Sokki Co., Japan). During the experiment, gallamine was administered intravenously at a dosage of 3 mg/kg at one-hour intervals to avoid fluctuation of air-way resistance.
# The β-adrenergic blocking activity of each of the test compounds was evaluated in terms of antagonism (Inhibition %) to the depression at the diastolic blood pressure (dBP) and to the increase in the heart rate induced by the intravenous administration of isoprenaline (1 μg/kg) and in terms of antagonism (Inhibition %) to the depression by isoprenaline in increase of air-way resistance which was induced by intravenous administration of histamine (5 μg/kg). In this case, histamine was administered 45 seconds after the administration of isoprenaline.
# [2] = acute toxicity (LD50) by intravenous and oral administration; conditions: rat, in vivo, fasted 12 hours
# Description: Further, the acute toxicity of the compounds of the present invention having the formula (I) was determined by intravenous administration (i.v.) and oral administration (p.o.) in 5 to 6 groups of […] (dd strain; body weight, 18 to 22 g; 10 rats in each group) which have been fasted for 12 hours prior to the test.
# [3] = iv, male rats, i.v., read-out: LD50 i.v.
# [4] = po, male rats, p.o., read-out: LD50 p.o.
Structure (SMILES),Inhibition (%) dBP (antagonism to the depression of diastolic blood pressure induced by isoprenaline) [1] [%],Inhibition (%) HR (antagonism to the increase in heart rate induced by isoprenaline) [1] [%],Inhibition (%) AR (antagonism to the depression by isoprenaline in increase of air-way resistance induced by histamine) [1] [%],"LD50 [2, 3] [mg/kg]","LD50 [2, 4] [mg/kg]","LD50 ([2]; iv, female rats, i.v., read-out: LD50 i.v.) [mg/kg]","LD50 ([2]; po, female rats, p.o., read-out: LD50 p.o.) [mg/kg]"
NC(=O)Nc1ccc(OCC(O)CN2CCN(c3ccccc3Cl)CC2)c2c1NC(=O)CC2 (centres unmarked) [compound 9],15.3,23.6,8.9,,,,
COc1ccc(CCNCC(O)COc2c(NC(C)=O)ccc3c2CCC(=O)N3)cc1OC (centres unmarked) [compound 6],11.3,37.2,12.6,160,1380,,
"CC(C)(C)NCC(O)COc1cccc2c1CCC(=O)N2 (centres unmarked) [compound 11, 5-(3-t-butylamino-2-hydroxy)propoxy-3,4-dihydrocarbostyril hydrochloride, reference compound]",100,100,100,,,,
Cc1ccccc1N1CCN(CC(O)COc2ccc(NS(C)(=O)=O)c3c2CCC(=O)N3)CC1 (centres unmarked) [compound 8],6.4,21.0,7.1,,,,
"COc1ccc(CCNCC(O)COc2cccc3c2CCC(=O)N3)cc1OC (centres unmarked) [compound 13, 5-(3,4-dimethoxyphenethylamino-2-hydroxy)propoxy-3,4-dihydrocarbostyril hydrochloride, reference compound]",65.6,87.2,79.1,,,,
CC(=O)Nc1ccc2c(c1OCC(O)CNC(C)C)CCC(=O)N2 (centres unmarked) [compound 1],17.8,25.3,11.3,,,,
COc1ccc(OCCNCC(O)COc2ccc(NC(N)=O)c3c2CCC(=O)N3)cc1 (centres unmarked) [compound 3],31.8,39.6,14.7,156,1340,,
CC(NCC(O)COc1ccc(NC(=O)C2CCCCC2)c2c1CCC(=O)N2)c1ccccc1 (centres unmarked) [compound 5],42.4,53.3,23.2,,,,
CCOC(=O)Nc1ccc(OCC(O)CNCCOc2ccc(C(N)=O)cc2)c2c1NC(=O)CC2 (centres unmarked) [compound 4],3.4,47.3,2.5,145,1210,,
COc1ccc(CCNCC(O)COc2ccc(NC(C)=O)c3c2CCC(=O)N3)cc1OC (centres unmarked) [compound 2],25.5,30.2,10.8,158,1350,142,1230
Cc1ccc(S(=O)(=O)Nc2ccc(OCC(O)CNCCOc3ccc(C(N)=O)cc3)c3c2NC(=O)CC3)cc1 (centres unmarked) [compound 7],11.4,26.8,10.2,115,1120,,
COc1ccccc1N1CCN(CC(O)COc2ccc(NC(C)=O)c3c2CCC(=O)N3)CC1 (centres unmarked) [compound 10],11.6,21.7,6.2,125,1170,,

# Reference: patent US4147869A, “3,4-Dihydrocarbostyril derivatives and process for preparing the same” (Otsuka Pharmaceutical Co., Ltd., priority 1976, dated 1979)
